{"source": "patent US12642803B2", "about": "“Pharmaceutical aqueous formulation comprising 1-(4-{[4-(dimethylamino)piperidin-1-yl]carbonyl}phenyl)-3-[4-(4,6-dimorpholin-4-yl-1,3,5-triazin-2-yl)phenyljurea” (PFIZER INC., priority 2017, dated 2026)", "key": {"[1]": {"assay": "Chemical and physical storage stability of the crystalline free base", "type": "physicochemical", "details": "crystalline form, 25° C. and 60% Relative Humidity (RH)", "description": "(§1) 1-(4-{[4-(Dimethylamino)piperidin-1-yl]carbonyl}phenyl)-3-[4-(4,6-dimorpholin-4-yl-1,3,5-triazin-2-yl)phenyl]urea may be prepared in crystalline form and is chemically and physically stable at 25° C. and 60% Relative Humidity (RH) for up to 3 years in this form."}, "[2]": {"details": "only with lactic acid and orthophosphoric acid, of ten acids tested; WO2016/097949; cited from earlier work"}, "[3]": {"assay": "Water solubility of the free base", "type": "physicochemical", "details": "for an aqueous solution formulation for intravenous or parenteral administration at the therapeutic dosage levels required", "description": "as §1"}, "[4]": {"assay": "Visual analysis (European Pharmacopoeia Method 2.9.20) and OPM analysis for crystallites or particles (clear solution)", "type": "physicochemical", "details": "for Solution concentration at which the necessary clear solutions are not obtained, or are not obtained consistently: pH required for intravenous administration", "text": "A “clear solution” is defined herein as a visually clear solution, which may bear a solution opalescence, that is essentially free from any visible particulates that can be observed on a visual inspection. Generally, if any particulate matter is observed, the formulation is not suitable for intravenous administration and should not be utilised as occlusion of blood vessels may occur. Accordingly, in view of the qualitative nature of the visual test, the term “essentially free from any visible particulates” is usually applied when no visible particulate matter is observed.\nThe visual inspection can be conducted in accordance with the method defined in European Pharmacopoeia Method 2.9.20 entitled “Particulate contamination: visible particles”. This method determines particulate contamination of injections and infusions by extraneous, mobile, undissolved particles, other than gas bubbles, that may be present in the solutions. […]\nA sample of the formulation was analysed in accordance with the visual method defined in European Pharmacopoeia Method 2.9.20 (using a Verivide (trade mark) light cabinet and a light meter reading of 3250 lux against a matt black panel and a white panel) to determine if crystallites or particles were present. […]\nA sample of the formulation was placed on a clean glass microscopy slide and covered with a glass cover slip. It was then analysed by OPM using both non-polarised and cross-polarised light under a Nikon LV 100POL (trade mark) microscope with a 10× magnification lens and a 10× magnification eyepiece to determine if crystallites or particles were present. The image was recorded using a DFK 23UP031 TIS USB 3.0 CMOS (trade mark) Colour Industrial Camera 5MP 1/2,5″ and image capture software. […]\nThese Examples were analysed by the visual method defined in European Pharmacopoeia Method 2.9.20 and the OPM method both as described in Example 1.\nThe Examples shown in the following Table were analysed by the visual method defined in European Pharmacopoeia Method 2.9.20 and the OPM method both as described in Example 1. […]"}}}
{"compound": "CN(C)C1CCN(C(=O)c2ccc(NC(=O)Nc3ccc(-c4nc(N5CCOCC5)nc(N5CCOCC5)n4)cc3)cc2)CC1", "note": "[1-(4-{[4-(Dimethylamino)piperidin-1-yl]carbonyl}phenyl)-3-[4-(4,6-dimorpholin-4-yl-1,3,5-triazin-2-yl)phenyl]urea]", "values": [{"measurement": "Time for which chemically and physically stable", "setting": "[1]", "value": "up to 3 years"}, {"measurement": "Concentration achieved as a clear solution", "setting": "[2]", "value": "≥ 3000", "unit": "µg/mL"}, {"measurement": "Water solubility", "setting": "[3]", "value": "insufficiently water soluble"}, {"measurement": "Solution concentration at which the necessary clear solutions are not obtained, or are not obtained consistently", "setting": "[4]; formulations comprising ethanesulphonic acid", "value": "≥ 35", "unit": "mg/mL"}, {"measurement": "Solution concentration at which the necessary clear solutions are not obtained, or are not obtained consistently", "setting": "[4]; formulations comprising methanesulphonic acid", "value": "≥ 35", "unit": "mg/mL"}, {"measurement": "Solution concentration achieved as clear, essentially particle-free solution", "setting": "[4]; use of methanesulphonic acid and ethanesulphonic acid, free base concentration", "value": "up to 30 mg/ml"}]}
